{"source": "patent US20170360795A1", "about": "“TREATMENT OF CANCERS USING PI3 KINASE ISOFORM MODULATORS” (INFINITY PHARMACEUTICALS, INC., priority 2013, published 2017)", "key": {"[1]": {"system": "central nervous system", "assay": "Neurofunctional study (FOB, motor activity)", "assay_type": "in vivo, Sprague-Dawley rat"}, "[2]": {"assay": "Pharmacokinetics / absolute bioavailability, mouse", "assay_type": "in vivo, BALB/c mouse", "conditions": "PO, 10 mg/kg, calculated using AUC0-last"}, "[3]": {"assay": "Pharmacokinetics / absolute bioavailability, dog", "assay_type": "in vivo, Beagle dog", "conditions": "PO, 5 mg/kg, calculated using 0.5 mg/kg IV dose as reference and AUC0-last"}, "[4]": {"system": "diluted whole blood stimulated with LPS", "assay": "Cytokine production from diluted whole blood stimulated with LPS", "assay_type": "cell-based"}, "[5]": {"system": "pPRAS40", "assay": "pPRAS40 level in HH, MJ, HuT78 cells", "assay_type": "cell-based", "conditions": "FIG. 33, as compared to GS-1101"}, "[6]": {"system": "circulating CLL cells", "assay": "Circulating CLL cells in treated CLL patients", "assay_type": "in vivo, human", "conditions": "25 mg BID"}, "[7]": {"system": "serum biomarkers", "assay": "Serum biomarkers in patients, 28 day cycles", "assay_type": "in vivo, human"}, "[8]": {"system": "CLL/SLL", "assay": "Clinical activity in CLL/SLL patients", "assay_type": "in vivo, human"}, "[9]": {"assay": "clinical study in healthy adult subjects: safety", "assay_type": "in vivo, human"}, "[10]": {"system": "CD63 expression on CCR3+ basophils", "assay": "ex vivo anti-FcεR1 basophil activation assay, healthy subjects", "assay_type": "in vivo, human", "conditions": "single and multiple doses"}, "[11]": {"target": "PI3K δ (Homo sapiens, UniProt O00329)", "sequence (O00329 whole entry)": "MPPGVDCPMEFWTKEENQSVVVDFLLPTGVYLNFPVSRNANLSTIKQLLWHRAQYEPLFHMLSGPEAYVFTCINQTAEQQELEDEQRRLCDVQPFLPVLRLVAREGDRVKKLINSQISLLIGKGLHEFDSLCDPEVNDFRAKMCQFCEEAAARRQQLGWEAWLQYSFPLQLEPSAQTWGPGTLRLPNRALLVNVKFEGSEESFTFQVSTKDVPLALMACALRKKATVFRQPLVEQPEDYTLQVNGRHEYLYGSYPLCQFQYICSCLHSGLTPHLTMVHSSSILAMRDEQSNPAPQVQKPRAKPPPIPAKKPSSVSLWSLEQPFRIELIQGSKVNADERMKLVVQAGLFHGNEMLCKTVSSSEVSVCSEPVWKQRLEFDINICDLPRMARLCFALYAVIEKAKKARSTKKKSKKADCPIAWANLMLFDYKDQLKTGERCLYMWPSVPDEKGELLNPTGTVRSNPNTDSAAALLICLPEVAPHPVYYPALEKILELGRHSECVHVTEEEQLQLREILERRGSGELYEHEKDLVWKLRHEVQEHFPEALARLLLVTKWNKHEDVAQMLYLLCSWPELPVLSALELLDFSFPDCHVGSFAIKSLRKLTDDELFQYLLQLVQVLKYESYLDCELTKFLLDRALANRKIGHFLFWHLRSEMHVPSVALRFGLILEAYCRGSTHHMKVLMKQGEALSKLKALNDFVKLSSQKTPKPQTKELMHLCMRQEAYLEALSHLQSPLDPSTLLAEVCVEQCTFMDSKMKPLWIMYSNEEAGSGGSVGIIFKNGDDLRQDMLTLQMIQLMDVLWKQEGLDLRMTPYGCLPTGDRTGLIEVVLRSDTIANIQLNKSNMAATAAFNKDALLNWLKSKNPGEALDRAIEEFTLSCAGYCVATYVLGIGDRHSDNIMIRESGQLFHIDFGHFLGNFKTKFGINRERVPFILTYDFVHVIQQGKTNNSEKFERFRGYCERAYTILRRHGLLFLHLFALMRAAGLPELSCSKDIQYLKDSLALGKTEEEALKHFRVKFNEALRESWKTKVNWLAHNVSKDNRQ", "sequence (P27986 whole entry partner)": "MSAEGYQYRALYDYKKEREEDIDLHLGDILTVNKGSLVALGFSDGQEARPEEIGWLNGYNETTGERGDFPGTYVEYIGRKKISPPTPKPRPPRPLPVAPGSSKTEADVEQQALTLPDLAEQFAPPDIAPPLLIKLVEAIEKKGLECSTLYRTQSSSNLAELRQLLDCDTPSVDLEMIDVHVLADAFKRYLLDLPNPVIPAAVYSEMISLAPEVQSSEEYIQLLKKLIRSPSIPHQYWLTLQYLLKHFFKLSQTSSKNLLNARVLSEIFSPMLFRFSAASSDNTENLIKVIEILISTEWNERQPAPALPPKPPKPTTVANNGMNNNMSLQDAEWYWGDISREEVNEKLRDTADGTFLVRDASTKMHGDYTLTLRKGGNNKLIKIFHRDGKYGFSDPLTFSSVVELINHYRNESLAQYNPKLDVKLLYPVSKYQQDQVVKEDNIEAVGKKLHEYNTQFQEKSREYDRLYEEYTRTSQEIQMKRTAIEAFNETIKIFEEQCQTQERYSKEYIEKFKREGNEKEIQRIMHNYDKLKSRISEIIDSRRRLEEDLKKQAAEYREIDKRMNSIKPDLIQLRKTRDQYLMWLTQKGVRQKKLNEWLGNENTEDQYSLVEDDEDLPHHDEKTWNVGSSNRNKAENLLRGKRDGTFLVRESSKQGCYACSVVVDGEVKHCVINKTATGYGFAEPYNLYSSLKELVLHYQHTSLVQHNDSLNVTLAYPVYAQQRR", "assay": "PK/PD: plasma concentration versus PI3K-δ inhibition", "assay_type": "in vivo", "conditions": "PK/PD in patients"}, "[12]": {"system": "Sézary syndrome", "assay": "clinical activity in Sézary syndrome", "assay_type": "in vivo, human", "conditions": "60 mg BID, 28 days cycle", "procedure": "Number of Sézary cells were determined by following conventional procedures using flowcytometry. […] CT response was assessed in terms of Sum of Product Diameters (SPD). […] Finally, mSWAT scores were determined using conventional procedures well-known in the art (see, e.g., Olsen et al., Journal of Clinical Oncology, available from http://jco.ascopubs.org/cgi/doi/10.1200.JCO.2010.32.0630 (2011))."}, "[13]": {"system": "SU-DHL-4", "assay": "cellular growth inhibition assay (72 hour CTG), DLBCL", "assay_type": "cell-based", "conditions": "SU-DHL-4 (GCB)"}, "[14]": {"system": "phospho-BTK in SU-DHL-4", "assay": "phospho-BTK in DLBCL cells", "assay_type": "cell-based", "conditions": "SU-DHL-4 cells"}, "[15]": {"system": "SU-DHL-4 GCB DLBCL cell line", "assay": "cell viability CellTiter Glo, 72 hours, with ibrutinib", "assay_type": "cell-based", "conditions": "SU-DHL-4, monotherapy"}, "[16]": {"target": "hERG channel (Homo sapiens, UniProt Q12809)", "sequence (Q12809 whole entry)": "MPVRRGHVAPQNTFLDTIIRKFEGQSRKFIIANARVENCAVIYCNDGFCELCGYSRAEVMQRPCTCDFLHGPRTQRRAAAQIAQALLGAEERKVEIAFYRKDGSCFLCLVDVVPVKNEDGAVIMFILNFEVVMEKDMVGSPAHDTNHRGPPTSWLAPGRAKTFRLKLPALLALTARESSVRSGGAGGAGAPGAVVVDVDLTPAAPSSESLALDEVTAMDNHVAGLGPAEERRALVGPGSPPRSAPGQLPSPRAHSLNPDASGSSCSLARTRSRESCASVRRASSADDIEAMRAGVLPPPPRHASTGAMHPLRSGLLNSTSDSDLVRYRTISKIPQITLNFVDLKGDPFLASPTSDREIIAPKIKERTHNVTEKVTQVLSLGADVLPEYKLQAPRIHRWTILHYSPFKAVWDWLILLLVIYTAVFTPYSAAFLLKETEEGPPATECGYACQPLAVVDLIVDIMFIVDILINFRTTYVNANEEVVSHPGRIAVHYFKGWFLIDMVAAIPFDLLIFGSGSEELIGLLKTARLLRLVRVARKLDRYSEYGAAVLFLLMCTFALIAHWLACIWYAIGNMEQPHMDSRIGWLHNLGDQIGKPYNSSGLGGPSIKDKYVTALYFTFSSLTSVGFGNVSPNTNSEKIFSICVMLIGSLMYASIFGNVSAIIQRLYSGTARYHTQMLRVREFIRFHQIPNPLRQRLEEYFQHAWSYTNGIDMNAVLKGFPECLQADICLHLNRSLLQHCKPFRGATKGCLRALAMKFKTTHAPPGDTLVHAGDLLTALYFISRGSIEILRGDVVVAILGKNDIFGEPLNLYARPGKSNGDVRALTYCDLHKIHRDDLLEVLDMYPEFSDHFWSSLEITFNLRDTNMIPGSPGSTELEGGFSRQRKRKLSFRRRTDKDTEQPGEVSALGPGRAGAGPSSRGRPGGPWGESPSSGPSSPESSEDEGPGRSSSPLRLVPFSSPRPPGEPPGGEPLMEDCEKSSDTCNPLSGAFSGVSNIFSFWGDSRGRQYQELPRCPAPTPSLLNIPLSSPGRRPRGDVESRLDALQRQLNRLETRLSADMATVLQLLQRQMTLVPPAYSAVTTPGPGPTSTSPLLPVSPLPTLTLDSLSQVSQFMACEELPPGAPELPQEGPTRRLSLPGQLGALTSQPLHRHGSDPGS", "assay": "In vitro hERG assay"}, "[17]": {"conditions": "multiple doses for 2 weeks (n=36)"}}, "note": "“Also recorded” adds a separate entry of the source."}
{"smiles": "C[C@H](Nc1ncnc2[nH]cnc12)c1cc2cccc(Cl)c2c(=O)n1-c1ccccc1", "note": "[Compound 292]", "values": [{"measurement": "locomotor activity", "setting": "[1]; 2 h after a 350 mg/kg dose", "result": "Significant decreases"}, {"measurement": "effects on the central nervous system", "setting": "[1]; dose levels ≦50 mg/kg", "result": "No effects"}, {"measurement": "Foral", "setting": "[2]", "result": 7, "unit": "i %"}, {"measurement": "Foral", "setting": "[3]", "result": 97, "unit": "g'i %"}, {"measurement": "TNF-α production", "setting": "[4]; FIG. 14A", "result": "inhibits"}, {"measurement": "IL-10 production", "setting": "[4]; FIG. 14B", "result": "inhibits"}, {"measurement": "level of pPRAS40", "setting": "[5]", "result": "decrease"}, {"measurement": "CD38/CD69 double positive circulating CLL cells", "setting": "[6]", "result": "reduction"}, {"measurement": "CD38 positive circulating CLL cells", "setting": "[6]", "result": "reduction"}, {"measurement": "CD69 positive circulating CLL cells", "setting": "[6]", "result": "reduction"}, {"measurement": "levels of CLL biomarkers in serum", "setting": "[7]; 25 mg BID", "result": "decrease"}, {"measurement": "levels of T-cell lymphoma biomarkers in serum", "setting": "[7]; 25 mg BID", "result": "decrease"}, {"measurement": "levels of iNHL biomarkers in serum", "setting": "[7]; 25 mg BID", "result": "decrease"}, {"measurement": "levels of lymphoma biomarkers in serum", "setting": "[7]; 25 mg BID", "result": "decrease"}, {"measurement": "levels of CLL biomarkers in serum", "setting": "[7]; 25 mg or 75 mg BID", "result": "decrease"}, {"measurement": "levels of iNHL biomarkers in serum", "setting": "[7]; 25 mg or 75 mg BID", "result": "decrease"}, {"measurement": "clinical activity", "setting": "[8]", "result": "rapid onset of clinical activity"}, {"measurement": "deaths and serious adverse events (SAEs)", "setting": "[9]; healthy subjects", "result": "no deaths and no serious adverse events"}, {"measurement": "headache (non-procedural AE)", "setting": "[9]; [17]", "result": 8, "unit": "%"}, {"measurement": "myalgia (non-procedural AE)", "setting": "[9]; [17]", "result": 6, "unit": "%"}, {"measurement": "nasopharyngitis (non-procedural AE)", "setting": "[9]; [17]", "result": 6, "unit": "%"}, {"measurement": "largest change from baseline in QTcF", "setting": "[9]; serial ECGs, all study groups", "result": 37, "unit": "ms"}, {"measurement": "subjects with QTcF greater than 500 msec", "setting": "[9]; serial ECGs, all study groups", "result": "No subject"}, {"measurement": "tolerability", "setting": "[9]; single doses up to 30 mg, multiple doses up to 10 mg daily for 14 days", "result": "well tolerated; also recorded: well-tolerated"}, {"measurement": "time of maximum reduction of basophil activation", "setting": "[10]", "result": 1, "unit": "hr post dose"}, {"measurement": "reduction of basophil activation (CD63 expression)", "setting": "[10]; all dose levels", "result": "dose-dependent reduction; also recorded: reduced in a dose-dependent manner"}, {"measurement": "dose at which complete inhibition of PI3K-δ can be achieved", "setting": "[11]", "result": "≥ 15", "unit": "mg BID"}, {"measurement": "CT response, Sum of Product Diameters (SPD)", "setting": "[12]", "result": "reduction in SPD"}, {"measurement": "mSWAT scores", "setting": "[12]", "result": "reduction in mSWAT scores"}, {"measurement": "number of Sézary cells in peripheral blood", "setting": "[12]; flowcytometry", "result": "substantial reduction"}, {"measurement": "sensitivity in cellular growth inhibition assay", "setting": "[13]", "result": "more sensitive; also recorded: nanomolar (nM) range"}, {"measurement": "level of pBTK (phospho-BTK)", "setting": "[14]", "result": "not modulated"}, {"measurement": "viability of DLBCL cells", "setting": "[15]", "result": "dose dependently inhibited"}, {"measurement": "Hill coefficient", "setting": "[16]", "result": 1.3}]}
